Results from publication PMC9860980, “Pharmacokinetics and Pharmacodynamics (PK/PD) of Corallopyronin A against Methicillin-Resistant Staphylococcus aureus” (Pharmaceutics, 2022).
Read-outs that look alike come from different tables or passages of the source.

Columns and labels:
[1] = Pharmacokinetics of CorA in plasma of CD-1 mice; assay type: in vivo; details: for Tmax / CL/F / Cmax / MRT / half-life / Vd/F / AUC0-t: CD-1 mice; for Vd/F: read-out: Vz/F_obs
Method: (§1) For pharmacokinetic (PK) experiments, 6–8-week-old outbred female CD-1 mice (Charles River, Germany) were used. CorA was dissolved in PEG400/phosphate-buffered saline (PBS) (80:20 (v/v)). CorA was administered once daily at 60 mg/kg intraperitoneally (IP), 100 mg/kg IP, 100 mg/kg subcutaneously (SC) and 100 mg/kg perorally (PO). Moreover, CorA was administered at 30 mg/kg IP twice a day (BID) (administration time points t = 0 and 6 h after first dose). Animals (n = 3 per time point) receiving either 60 mg/kg IP or 100 mg/kg IP were euthanized at 10, 15, 30, 60 and 180 min after administration. Animals (n = 3 per time point) receiving 30 mg/kg IP BID were euthanized at 0.167, 0.25, 0.5, 1, 3, 5.75, 6.167, 6.25, 6.5, 7 and 9 h after first administration. Animals (n = 3 per time point) receiving 100 mg/kg SC or 100 mg/kg PO were euthanized at 0.25, 1, 2, 4 and 8 h after administration. At every time point blood was removed from the heart, collected into tubes coated with 0.5 M ethylenediaminetetraacetic acid (EDTA), immediately spun down at 15,870× g for 10 min at 4 °C and the resultant plasma transferred into a new tube. Furthermore, at every time point heart, lung, brain, liver, spleen, kidneys, and thigh muscles were removed and frozen in liquid nitrogen. For animals receiving 100 mg/kg PO also rectum (without feces), pharynx, skin, vaginal tract, subcutaneous fat tissue, visceral fat tissue and tibiae were removed and frozen in liquid nitrogen. Before removing the vaginal tract, a vaginal flush was performed.
CorA plasma concentrations were quantified by HPLC-DAD with an Alliance e2695 separation module and a 2998 PDA detector (Waters, Eschborn, Germany). For the analysis, blood samples were centrifuged for 10 min at 4 °C and 3220× g. The generated plasma (20 µL) was mixed 1:3 with ice-cold acetonitrile, vortexed for 10 s and centrifuged for 25 min at 4 °C and 11,000× g. The supernatant was transferred into a HPLC vial and a sample volume of 5 µL was injected and quantified at a wavelength of 300 nm. A Waters XBridge® Shield RP18 column (3.5 μm, 2.1 × 100 mm, 130 A) was used at 30 °C. Two solvent gradients comprising mobile phase A (acetonitrile/water 5/95 with 5 mM ammonium acetate and 40 μL acetic acid per liter) and mobile phase B (acetonitrile/water 95/5 with 5 mM ammonium acetate and 40 μL acetic acid per liter) with a gradient from 70%A/30%B to 20%A/80%B, stepwise within 30 min and a flow rate of 0.3 mL/min were used. Data were analyzed by Empower 3 software and quantified using an external reference standard. No major matrix effects were seen when mixing ACN containing CorA with plasma.
(§2) Caffeine was used as an internal standard.

MRSA = details: against MRSA; cited from earlier work
[2] = Biodistribution of CorA to organs/tissues of CD-1 mice (LC-MS/MS); assay type: in vivo
Method: as §1, §2

[3] = female, mouse, plasma, 30 mg/kg IP (BID), mean ± SD
[4] = female, mouse, plasma, 60 mg/kg IP, mean ± SD
[5] = female, mouse, plasma, 100 mg/kg IP, mean ± SD
[6] = female, mouse, plasma, 100 mg/kg PO

SMILES: C/C=C/C/C=C(\C)C(O)CC/C(C)=C/C=C(\C)C(=O)c1c(O)cc([C@H](C)CC/C=C/NC(=O)OC)oc1=O (some centres unmarked) [CorA, Corallopyronin A]
- time CorA was found in plasma after dosing ([1]; 100 mg/kg PO): up to 8 h
- exposure in plasma lower compared to the same dose administered IP or SC ([1]; 100 mg/kg PO vs 100 mg/kg IP or SC): 3- to 4 fold
- Tmax ([1]; female, CD-1, mouse, plasma, ip, 30 mg/kg, 30 mg/kg IP (BID), mean ± SD): 11.4 min
- Tmax ([1]; female, CD-1, mouse, plasma, ip, 60 mg/kg, 60 mg/kg IP, mean ± SD): 11.4 min
- Tmax ([1]; female, CD-1, mouse, plasma, ip, 100 mg/kg, 100 mg/kg IP, mean ± SD): 11.4 min
- Tmax ([1]; female, CD-1, mouse, plasma, po, 100 mg/kg, 100 mg/kg PO): 30 ± 24 min
- Tmax ([1]; female, CD-1, mouse, plasma, sc, 100 mg/kg, 100 mg/kg SC, mean ± SD): 200 ± 72 min
- concentration at 8 h ([1]; female, CD-1, mouse, plasma, subcutaneous, 100 mg/kg SC, 8 h after dosing): > 10000 ng/mL
- CL/F [1, 3]: 0.89 mL/min/kg
- Cmax [1, 3]: 194 ± 15.6 µg/mL
- MRT [1, 3]: 3.61 ± 0.6 h
- half-life [1, 3]: 140 ± 18 min
- Vd/F [1, 3]: 0.18 L/kg
- CL/F [1, 4]: 1.8 mL/min/kg
- Cmax [1, 4]: 416 ± 39.1 µg/mL
- MRT [1, 4]: 1.55 ± 0.2 h
- half-life [1, 4]: 66 ± 12 min
- Vd/F [1, 4]: 0.17 L/kg
- CL/F [1, 5]: 3.43 ± 0.4 mL/min/kg
- Cmax [1, 5]: 349 ± 12.4 µg/mL
- MRT [1, 5]: 2.51 ± 1 h
- half-life [1, 5]: 112 ± 48 min
- Vd/F [1, 5]: 0.54 ± 0.2 L/kg
- CL/F [1, 6]: 16.4 ± 4 mL/min/kg
- Cmax [1, 6]: 89.8 ± 43.8 µg/mL
- MRT [1, 6]: 3.13 ± 0.2 h
- half-life [1, 6]: 173 ± 36 min
- AUC0-t ([1]; female, mouse, plasma, 100 mg/kg PO, read-out: AUC 0-t): 94 ± 27.1 µg·h/mL
- Vd/F [1, 6]: 4.09 ± 1.3 L/kg
- Cmax ([1]; female, mouse, plasma, 100 mg/kg SC, mean ± SD): 107 ± 59.2 µg/mL
- AUC0-t ([1]; plasma, 30 mg/kg IP (BID), mean ± SD): 303.88 ± 21.9 µg·h/mL
- AUC0-t ([1]; plasma, 60 mg/kg IP, mean ± SD): 463.87 ± 18.8 µg·h/mL
- AUC0-t ([1]; plasma, 100 mg/kg IP, mean ± SD): 339.53 ± 28.4 µg·h/mL
- Cmax lower compared to the same dose administered IP ([1]; plasma, 100 mg/kg PO vs 100 mg/kg IP): 3- to 4 fold
- AUC0-t ([1]; plasma, 100 mg/kg SC, mean ± SD): 459.32 ± 238.2 µg·h/mL
- in vitro minimal inhibitory concentration (MIC) (MRSA): 0.125 µg/mL
- CorA in vaginal flush ([2]; 100 mg/kg PO): not found
- time initial peak concentrations in tissue are above the MIC ([2]; IP dosing): 2 to 3 h
- AUC ([2]; brain, 30 mg/kg IP): 0.05 µg·h/g
- AUC ([2]; brain, 60 mg/kg IP): 0.10 µg·h/g
- AUC ([2]; brain, 100 mg/kg IP): 0.10 µg·h/g
- AUC ([2]; brain, 100 mg/kg SC): 0.24 µg·h/g
- time tissue concentration exceeds the in vitro MIC against MRSA ([2]; female, CD-1, mouse, in vivo, sc, 100 mg/kg): more than 9 h
- Cmax ([2]; female, CD-1, mouse, thigh muscle, thigh, 30 mg/kg IP): 100 ng/g
- Cmax ([2]; female, CD-1, mouse, thigh muscle, thigh, 60 mg/kg IP): 300 ng/g
- Cmax ([2]; female, CD-1, mouse, thigh muscle, thigh, 100 mg/kg IP): 700 ng/g
- Tmax ([2]; female, CD-1, mouse, 100 mg/kg PO, thigh, heart, kidney, spleen, lung, liver, fat, rectum, pharynx, vaginal tract, skin, tibia, read-out: time of peak concentration in the investigated tissues): 15 to 30 min
- Cmax ([2]; female, CD-1, mouse, brain, 30 mg/kg IP): 40 ng/g
- Cmax ([2]; female, CD-1, mouse, brain, 60 mg/kg IP): 70 ng/g
- Cmax ([2]; female, CD-1, mouse, brain, 100 mg/kg IP): 100 ng/g
- Cmax ([2]; female, CD-1, mouse, brain, 100 mg/kg SC): 150 ng/g
- Cmax ([2]; female, CD-1, mouse, heart, 30 mg/kg IP): 1100 ng/g
- Cmax ([2]; female, CD-1, mouse, heart, 60 mg/kg IP): 1800 ng/g
- Cmax ([2]; female, CD-1, mouse, heart, 100 mg/kg IP): 3100 ng/g
- Cmax ([2]; female, CD-1, mouse, heart, 100 mg/kg SC): 1480 ng/g
- Cmax ([2]; female, CD-1, mouse, kidney, 30 mg/kg IP): 700 ng/g
- Cmax ([2]; female, CD-1, mouse, kidney, 60 mg/kg IP): 1200 ng/g
- Cmax ([2]; female, CD-1, mouse, kidney, 100 mg/kg IP): 1800 ng/g
- Cmax ([2]; female, CD-1, mouse, kidney, 100 mg/kg SC): 1760 ng/g
- Cmax ([2]; female, CD-1, mouse, liver, 30 mg/kg IP): 310 ng/g
- Cmax ([2]; female, CD-1, mouse, liver, 60 mg/kg IP): 430 ng/g
- Cmax ([2]; female, CD-1, mouse, liver, 100 mg/kg IP): 610 ng/g
- Cmax ([2]; female, CD-1, mouse, liver, 100 mg/kg SC): 2300 ng/g
- Cmax ([2]; female, CD-1, mouse, lung, 30 mg/kg IP): 1500 ng/g
- Cmax ([2]; female, CD-1, mouse, lung, 60 mg/kg IP): 3100 ng/g
- Cmax ([2]; female, CD-1, mouse, lung, 100 mg/kg IP): 4800 ng/g
- Cmax ([2]; female, CD-1, mouse, lung, 100 mg/kg SC): 1270 ng/g
- Cmax ([2]; female, CD-1, mouse, spleen, 30 mg/kg IP): 1400 ng/g
- Cmax ([2]; female, CD-1, mouse, spleen, 60 mg/kg IP): 2100 ng/g
- Cmax ([2]; female, CD-1, mouse, spleen, 100 mg/kg IP): 4900 ng/g
- Cmax ([2]; female, CD-1, mouse, spleen, 100 mg/kg SC): 600 ng/g
- AUC ([2]; heart, 30 mg/kg IP): 1.08 µg·h/g
- AUC ([2]; heart, 60 mg/kg IP): 1.83 µg·h/g
- AUC ([2]; heart, 100 mg/kg IP): 2.10 µg·h/g
- AUC ([2]; heart, 100 mg/kg SC): 3.53 µg·h/g
- AUC ([2]; kidney, 30 mg/kg IP): 0.49 µg·h/g
- AUC ([2]; kidney, 60 mg/kg IP): 0.95 µg·h/g
- AUC ([2]; kidney, 100 mg/kg IP): 1.01 µg·h/g
- AUC ([2]; kidney, 100 mg/kg SC): 5.61 µg·h/g
- AUC ([2]; liver, 30 mg/kg IP): 0.40 µg·h/g
- AUC ([2]; liver, 60 mg/kg IP): 0.57 µg·h/g
- AUC ([2]; liver, 100 mg/kg IP): 0.59 µg·h/g
- AUC ([2]; liver, 100 mg/kg SC): 12.44 µg·h/g
- AUC ([2]; lung, 30 mg/kg IP): 1.2 µg·h/g
- AUC ([2]; lung, 60 mg/kg IP): 3.56 µg·h/g
- AUC ([2]; lung, 100 mg/kg IP): 2.67 µg·h/g
- AUC ([2]; lung, 100 mg/kg SC): 3.85 µg·h/g
- time CorA levels above the MIC ([2]; lung, 100 mg/kg SC): ~ 4 h
- time CorA levels exceed the in vitro MIC ([2]; lung, all three doses administered IP (30, 60, 100 mg/kg)): around 3 h
- AUC ([2]; spleen, 30 mg/kg IP): 0.77 µg·h/g
- AUC ([2]; spleen, 60 mg/kg IP): 1.34 µg·h/g
- AUC ([2]; spleen, 100 mg/kg IP): 2.55 µg·h/g
- AUC ([2]; spleen, 100 mg/kg SC): 1.4 µg·h/g
- AUC ([2]; thigh, 30 mg/kg IP): 0.19 µg·h/g
- time CorA levels exceed the MIC ([2]; thigh, 30 mg/kg IP): about one hour
- AUC ([2]; thigh, 60 mg/kg IP): 0.49 µg·h/g
- time CorA levels above the MIC ([2]; thigh, 60 mg/kg IP): around 3 h
- AUC ([2]; thigh, 100 mg/kg IP): 0.60 µg·h/g
- time CorA levels above the MIC ([2]; thigh, 100 mg/kg IP): around 3 h
- peak concentrations in thigh above the in vitro determined MIC ([2]; thigh, 100 mg/kg IP, MIC 0.125 µg/mL): 3–5 ×
- CorA levels in thigh tissue ([2]; thigh, 100 mg/kg SC): no CorA levels were detected
